# Data as given in ChEMBL document CHEMBL5375962 (J Med Chem, 2023).
# Tested on: Hepatocyte
# Test: Cytotoxicity against rat Primary hepatocyte
# Type: toxicity, cell-based
# Conditions: hepatocytes
row,SMILES,LC20 [µM]
1,C[C@H]1CCN1c1nc(-c2cn[nH]c2)cc(C(F)(F)F)c1C#N,> 50

# Tested on: not listed separately
# Test: Inhibition of mouse KHK-A
# Conditions: not given
row,IC50 [nM],SMILES
1,4,C[C@H]1CCN1c1nc(-c2cnn(CCO)c2)cc(C(F)(F)F)c1C#N
2,19,CC(=O)N1CCC(n2cc(-c3cc(C(F)(F)F)c(C#N)c(N4CC[C@@H]4C)n3)cn2)CC1
3,6,C[C@H]1CCN1c1nc(-c2cn[nH]c2)cc(C(F)(F)F)c1C#N

# Tested on: not listed separately
# Test: Permeability in MDCK cells assessed as drug transport measured over 1 hr in presence of P-gp
# Type: ADME, cell-based, Canis lupus familiaris
# Conditions: dog
row,Drug transport [%],SMILES
1,20,C[C@H]1CCN1c1nc(-c2cn[nH]c2)cc(C(F)(F)F)c1C#N

# Tested on: not listed separately
# Test: Clearance in dog hepatocytes measured per 10^6 cells
# Type: ADME, cell-based, Canis lupus familiaris, Hepatocyte
# Conditions: read-out: CLH
row,hepatocyte CLint [µL/min/1e6 cells],SMILES
1,150,C[C@H]1CCN1c1nc(-c2cn[nH]c2)cc(C(F)(F)F)c1C#N

# Target: T1, Ketohexokinase (Homo sapiens, UniProt P50053)
# T1 sequence (P50053 whole entry): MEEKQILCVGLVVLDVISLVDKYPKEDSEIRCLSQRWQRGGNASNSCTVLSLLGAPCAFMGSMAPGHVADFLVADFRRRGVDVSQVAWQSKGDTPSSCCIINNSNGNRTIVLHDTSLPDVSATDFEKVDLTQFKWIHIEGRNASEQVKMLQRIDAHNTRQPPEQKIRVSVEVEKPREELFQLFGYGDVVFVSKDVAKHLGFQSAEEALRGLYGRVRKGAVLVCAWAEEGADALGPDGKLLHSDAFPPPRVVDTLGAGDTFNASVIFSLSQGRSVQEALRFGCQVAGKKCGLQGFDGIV
# Test: Inhibition of human KHK-A preincubated for 15 mins followed by substrate addition and measured after 20 mins in presence of ATP by Rapidfire MS analysis
# Conditions: not given
row,IC50 [nM],SMILES
1,5,C[C@H]1CCN1c1nc(-c2cnn(CCO)c2)cc(C(F)(F)F)c1C#N

# Tested on: not listed separately
# Test: Clearance in rat hepatocytes measured per 10^6 cells
# Type: ADME, cell-based, Hepatocyte
# Conditions: read-out: CLH
row,hepatocyte CLint [µL/min/1e6 cells],SMILES
1,30,C[C@H]1CCN1c1nc(-c2cn[nH]c2)cc(C(F)(F)F)c1C#N

# Target: T1, Ketohexokinase
# Test: Inhibition of KHK in human HepG2 cells incubated for 3 hrs by Rapidfire MS analysis
# Type: cell-based
# Conditions: not given
row,IC50 [nM],SMILES
1,48,C[C@H]1CCN1c1nc(-c2cnn(CCO)c2)cc(C(F)(F)F)c1C#N
2,96,CC(=O)N1CCC(n2cc(-c3cc(C(F)(F)F)c(C#N)c(N4CC[C@@H]4C)n3)cn2)CC1
3,34,C[C@H]1CCN1c1nc(-c2cn[nH]c2)cc(C(F)(F)F)c1C#N

# Tested on: not listed separately
# Test: Metabolic stability in human liver microsomes assessed as compound degradation measured after 30 mins
# Type: ADME, Microsome
# Conditions: read-out: Drug degradation
row,metabolised at 0.5 h [%],SMILES
1,52,C[C@H]1CCN1c1nc(-c2cnn(CCO)c2)cc(C(F)(F)F)c1C#N
2,45,CC(=O)N1CCC(n2cc(-c3cc(C(F)(F)F)c(C#N)c(N4CC[C@@H]4C)n3)cn2)CC1
3,52,C[C@H]1CCN1c1nc(-c2cn[nH]c2)cc(C(F)(F)F)c1C#N

# Tested on: not listed separately
# Test: Thermodynamic solubility of the compound […] at pH 7.4
# Type: physicochemical
# Conditions: read-out: Therm_solubility
row,solubility thermodynamic [µg/mL],SMILES
1,1,C[C@H]1CCN1c1nc(-c2cnn(CCO)c2)cc(C(F)(F)F)c1C#N
2,7,CC(=O)N1CCC(n2cc(-c3cc(C(F)(F)F)c(C#N)c(N4CC[C@@H]4C)n3)cn2)CC1
3,3,C[C@H]1CCN1c1nc(-c2cn[nH]c2)cc(C(F)(F)F)c1C#N

# Tested on: not listed separately
# Test: Metabolic stability in rat liver microsomes assessed as compound degradation measured after 30 mins
# Type: ADME, Microsome
# Conditions: read-out: Drug degradation
row,metabolised at 0.5 h [%],SMILES
1,99,C[C@H]1CCN1c1nc(-c2cnn(CCO)c2)cc(C(F)(F)F)c1C#N
2,30,CC(=O)N1CCC(n2cc(-c3cc(C(F)(F)F)c(C#N)c(N4CC[C@@H]4C)n3)cn2)CC1
3,81,C[C@H]1CCN1c1nc(-c2cn[nH]c2)cc(C(F)(F)F)c1C#N

# Tested on: not listed separately
# Test: Metabolic stability in mouse liver microsomes assessed as compound degradation measured after 30 mins
# Type: ADME, Microsome
# Conditions: read-out: Drug degradation
row,metabolised at 0.5 h [%],SMILES
1,99,C[C@H]1CCN1c1nc(-c2cnn(CCO)c2)cc(C(F)(F)F)c1C#N
2,66,CC(=O)N1CCC(n2cc(-c3cc(C(F)(F)F)c(C#N)c(N4CC[C@@H]4C)n3)cn2)CC1
3,100,C[C@H]1CCN1c1nc(-c2cn[nH]c2)cc(C(F)(F)F)c1C#N

# Tested on: not listed separately
# Test: Clearance in human hepatocytes measured per 10^6 cells
# Type: ADME, cell-based, Hepatocyte
# Conditions: read-out: CLH
row,hepatocyte CLint [µL/min/1e6 cells],SMILES
1,49,C[C@H]1CCN1c1nc(-c2cn[nH]c2)cc(C(F)(F)F)c1C#N

# Tested on: not listed separately
# Test: Metabolic stability in dog liver microsomes assessed as compound degradation measured after 30 mins
# Type: ADME, Canis lupus familiaris, Microsome
# Conditions: read-out: Drug degradation
row,metabolised at 0.5 h [%],SMILES
1,95,C[C@H]1CCN1c1nc(-c2cnn(CCO)c2)cc(C(F)(F)F)c1C#N
2,32,CC(=O)N1CCC(n2cc(-c3cc(C(F)(F)F)c(C#N)c(N4CC[C@@H]4C)n3)cn2)CC1
3,98,C[C@H]1CCN1c1nc(-c2cn[nH]c2)cc(C(F)(F)F)c1C#N

# Tested on: not listed separately
# Test: Inhibition of mouse KHK-C
# Conditions: not given
row,IC50 [nM],SMILES
1,7,C[C@H]1CCN1c1nc(-c2cnn(CCO)c2)cc(C(F)(F)F)c1C#N
2,45,CC(=O)N1CCC(n2cc(-c3cc(C(F)(F)F)c(C#N)c(N4CC[C@@H]4C)n3)cn2)CC1
3,19,C[C@H]1CCN1c1nc(-c2cn[nH]c2)cc(C(F)(F)F)c1C#N
